These results are taken from patent publication US11672794B2, “Therapeutic targeting of the BAP1 complex in cancer” (NORTHWESTERN UNIVERSITY, priority 2019, dated 2023).

Assay [1] deals with T1, recombinant BAP1 (Homo sapiens, UniProt Q92560).
T1 construct: made in house; host or cells: bacteria
T1 sequence (Q92560 1-729): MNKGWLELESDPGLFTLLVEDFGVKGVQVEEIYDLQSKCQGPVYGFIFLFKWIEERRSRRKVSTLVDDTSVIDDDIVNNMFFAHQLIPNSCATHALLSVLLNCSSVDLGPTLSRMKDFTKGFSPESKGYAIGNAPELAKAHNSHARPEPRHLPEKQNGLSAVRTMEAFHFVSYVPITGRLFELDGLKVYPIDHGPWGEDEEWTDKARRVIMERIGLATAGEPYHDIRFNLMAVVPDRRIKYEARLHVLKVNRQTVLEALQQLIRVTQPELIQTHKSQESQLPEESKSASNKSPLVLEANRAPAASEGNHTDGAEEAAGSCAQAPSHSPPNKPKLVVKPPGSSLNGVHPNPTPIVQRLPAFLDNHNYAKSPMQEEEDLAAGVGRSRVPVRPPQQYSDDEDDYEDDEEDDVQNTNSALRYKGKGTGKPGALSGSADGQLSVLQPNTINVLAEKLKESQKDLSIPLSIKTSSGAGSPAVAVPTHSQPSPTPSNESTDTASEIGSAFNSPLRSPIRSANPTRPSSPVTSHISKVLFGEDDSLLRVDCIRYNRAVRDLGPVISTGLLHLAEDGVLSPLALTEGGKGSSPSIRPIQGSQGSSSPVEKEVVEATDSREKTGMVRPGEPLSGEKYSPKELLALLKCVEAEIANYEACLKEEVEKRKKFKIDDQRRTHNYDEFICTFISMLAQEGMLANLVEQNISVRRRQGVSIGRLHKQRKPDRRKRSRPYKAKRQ
Kind of assay: Ub-AMC assay of BAP1 deubiquitinase activity. The assay is classed as biochemical. Particulars: 100 nM Ub-AMC, 0.1 nM recombinant BAP1. The source says:
(§1) Since the truncated ASXL1 functions as co-activator of BAP1 in human leukemic cells, and based on previous studies, mutations in ASXL1 lead to the hyper-activation of BAP1 in mice (16), we sought to identify small molecule inhibitors that inhibit BAP1 catalytic activity. Although crucial catalytic residues in BAP1 have been identified through general homology with other deubiquitinases, a detailed atomic resolution structure of BAP1 has yet to be determined. Therefore, because a structure-based approach is currently unattainable, we adopted a structure-agnostic unbiased biochemical screen for small molecule inhibitors of BAP1′s deubiquitinase activity. Toward this goal, we employed an Ubiquitin- 7-amino-4-methylcoumarin (Ub-AMC) screening platform. Ubiquitin-AMC (Ub-AMC) is a fluorogenic substrate for ubiquitin hydrolases based on the C-terminus derivatization of ubiquitin with 7-amido-4-methylcoumarin (AMC). Upon incubation with a protease recognizing Ubiquitin, such as BAP1, AMC is released and the increase in fluorescence can be measured (7, 17) (FIG. 4A). We optimized the screening condition and finally used 100 nM Ub-AMC and 0.1 nM recombinant BAP1 (FIG. 10A) for the reaction (FIG. 10B). The top 1% hits from 3,000 of 8-compound mixtures were subjected for a secondary validation (FIG. 10C, D). […]

The test system of assay [2] is 293T-ASXL1-Y591* mutant cells vs 293T-ASXL1-WT cells. Put plainly: Cell viability (cell counting) of 293T-ASXL1-WT and 293T-ASXL1-Y591* mutant cells, 72 hours. Particulars: cell counting assay. The assay is classed as cell-based, human. As for the experimental part: FIG. 11. Analog for compound #7152836 A) Structure of 16 analogs for compound #7152836. B) Dose-dependent inhibition of BAP1 activity the analogs in (A) in Ub-AMC assay. C) 293T-ASXL1-WT, 293T-ASXL1-Y591* mutant cells were treated with different concentrations of Doxorubicin, HSP90 inhibitor PU-H71, UCHLS inhibitor b-AP1 and iBAP for 72 hours. The cell viability was determined by cell counting assay.
as §1, with “Ubiquitin-AMC (Ub-AMC) is a fluorogenic substrate for ubiquitin hydrolases based on the C-terminus derivatization of ubiquitin with 7-amido-4-methylcoumarin (AMC).” left out, “4A).” for “4A). We optimized the screening condition and finally used 100 nM Ub-AMC and 0.1 nM recombinant BAP1 (FIG. 10A) for the reaction (FIG. 10B). The top 1% hits from 3,000 of 8-compound mixtures were subjected for a secondary validation (FIG. 10C, D).”

For the compound `COc1ccccc1C(=O)NC(=S)Nc1ccc2oc(-c3cc(F)c(F)cc3Cl)nc2c1` [#7231120], the “inhibition of BAP1 catalytic activity in vitro” value in assay [1] is given as “could efficiently inhibit BAP1 catalytic activity”.

On to `C=CC(=O)N1C/C(=C\c2ccc([N+](=O)[O-])cc2)C(=O)/C(=C/c2ccc([N+](=O)[O-])cc2)C1` [UCHLS inhibitor], for which, in assay [2], the “difference of cell viability between ASXL1 wild type and mutant cells” value was “did not observe any significant difference”.
